Target: T1, BRM (Homo sapiens, UniProt P51531)
T1 construct: Western Blot Screen of BRM Degradation in SW1573 Cells; endogenous in cells; host or cells: SW1573 cells
Assay: BRM degradation (Dmax and DC50) in SW1573 cells, Western blot screen / In-Cell Western screen
Format: cell-based
Details: overnight (18-20 hours) treatment; for Dmax: read-out: Dmax (%)** (% degraded)
Outline: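 Dmax and DC50 were derived from BRM levels normalised to an alpha-tubulin control, measured by chemiluminescent Western blotting of lysates or by PFA-fixed In-Cell Western on LI-COR Odyssey. SW1573 cells received compound overnight (18–20 h, 0.1% DMSO final).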

T1 sequence (P51531 whole entry): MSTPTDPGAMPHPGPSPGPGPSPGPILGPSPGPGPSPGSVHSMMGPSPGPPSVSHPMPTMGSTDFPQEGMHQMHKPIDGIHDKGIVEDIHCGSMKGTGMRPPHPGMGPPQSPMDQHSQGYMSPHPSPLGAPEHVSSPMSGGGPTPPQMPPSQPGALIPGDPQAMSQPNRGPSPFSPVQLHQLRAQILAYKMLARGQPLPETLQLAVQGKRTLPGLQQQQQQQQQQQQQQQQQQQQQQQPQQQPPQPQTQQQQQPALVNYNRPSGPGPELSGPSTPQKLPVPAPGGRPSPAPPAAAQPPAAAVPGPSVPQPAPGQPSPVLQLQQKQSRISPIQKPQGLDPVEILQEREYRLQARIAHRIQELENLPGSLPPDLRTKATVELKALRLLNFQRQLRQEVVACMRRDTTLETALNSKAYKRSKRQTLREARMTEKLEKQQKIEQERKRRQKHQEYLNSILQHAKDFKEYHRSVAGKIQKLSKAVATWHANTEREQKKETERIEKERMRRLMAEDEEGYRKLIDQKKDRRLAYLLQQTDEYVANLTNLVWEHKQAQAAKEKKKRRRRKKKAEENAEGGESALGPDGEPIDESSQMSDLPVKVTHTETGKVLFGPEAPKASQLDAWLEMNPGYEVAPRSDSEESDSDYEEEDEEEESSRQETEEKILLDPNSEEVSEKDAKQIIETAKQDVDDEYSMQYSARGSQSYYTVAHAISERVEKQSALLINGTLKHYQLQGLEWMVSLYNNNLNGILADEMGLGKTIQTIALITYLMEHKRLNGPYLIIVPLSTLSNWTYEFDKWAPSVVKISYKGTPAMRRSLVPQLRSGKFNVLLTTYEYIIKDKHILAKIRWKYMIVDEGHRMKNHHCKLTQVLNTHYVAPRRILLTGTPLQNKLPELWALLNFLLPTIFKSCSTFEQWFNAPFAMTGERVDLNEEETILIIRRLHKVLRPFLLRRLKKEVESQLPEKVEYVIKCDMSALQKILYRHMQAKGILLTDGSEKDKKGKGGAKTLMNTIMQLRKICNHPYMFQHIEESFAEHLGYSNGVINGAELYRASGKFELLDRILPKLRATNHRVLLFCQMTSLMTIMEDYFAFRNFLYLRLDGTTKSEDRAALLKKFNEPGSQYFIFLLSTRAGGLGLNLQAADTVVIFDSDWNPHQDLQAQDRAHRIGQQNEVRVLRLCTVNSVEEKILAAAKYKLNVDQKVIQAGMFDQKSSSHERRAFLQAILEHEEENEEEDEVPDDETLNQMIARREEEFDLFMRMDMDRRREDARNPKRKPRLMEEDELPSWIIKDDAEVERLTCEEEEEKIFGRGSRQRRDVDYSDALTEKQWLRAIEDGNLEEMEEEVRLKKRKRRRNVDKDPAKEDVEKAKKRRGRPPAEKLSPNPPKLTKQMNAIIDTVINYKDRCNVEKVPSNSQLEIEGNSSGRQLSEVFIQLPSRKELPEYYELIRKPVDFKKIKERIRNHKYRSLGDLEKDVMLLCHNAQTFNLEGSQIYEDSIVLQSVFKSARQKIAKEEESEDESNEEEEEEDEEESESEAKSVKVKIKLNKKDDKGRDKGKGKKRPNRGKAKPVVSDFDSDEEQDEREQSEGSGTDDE

| SMILES | DC50 | Dmax |
| --- | --- | --- |
| Cc1ncsc1-c1ccc([C@H](C)NC(=O)[C@@H]2C[C@@H](O)CN2C(=O)[C@@H](c2cc(N3CCC(CN4CCC(O[C@H]5C[C@H](CN6CCC(N7C8CCC7CN(c7cc(-c9ccccc9O)nnc7N)C8)CC6)C5)CC4)CC3)no2)C(C)C)cc1 [Compound 24, (2S,4R)-4-hydroxy-N-[(1S)-1-[4-(4-methyl-1,3-thiazol-5-yl)phenyl]ethyl]-1-[(2R)-3-methyl-2-{3-[4-({4-[(1r,3r)-3-[(4-{3-[3-amino-6-(2-hydroxyphenyl)pyridazin-4-yl]-3,8-diazabicyclo[3.2.1]octan-8-yl}piperidin-1-yl)methyl]cyclobutoxy]piperidin-1-yl}methyl)piperidin-1-yl]-1,2-oxazol-5-yl}butanoyl]pyrrolidine-2-carboxamide] | < 2.5 nM | > 75% |
| CC(C)[C@@H](C(=O)N1C[C@H](O)C[C@H]1C(=O)N[C@@H](C)c1ccc(C#N)cc1)c1cc(N2CCC(CN3CCC(O[C@H]4C[C@H](Oc5cc(N6CC7CCC(C6)N7c6cc(-c7ccccc7O)nnc6N)ccn5)C4)CC3)CC2)no1 [Compound 15, (2S,4R)-N-[(1S)-1-(4-cyanophenyl)ethyl]-4-hydroxy-1-[(2R)-3-methyl-2-{3-[4-({4-[(1r,3r)-3-[(4-{8-[3-amino-6-(2-hydroxyphenyl)pyridazin-4-yl]-3,8-diazabicyclo[3.2.1]octan-3-yl}pyridin-2-yl)oxy]cyclobutoxy]piperidin-1-yl}methyl)piperidin-1-yl]-1,2-oxazol-5-yl}butanoyl]pyrrolidine-2-carboxamide] | 2.5 to 10 nM | > 75% |
| Cc1ncsc1-c1ccc([C@H](C)NC(=O)[C@@H]2C[C@@H](O)CN2C(=O)[C@@H](c2cc(N3CCC(CN4CCC5(CC4)CC(N4CCO[C@@H](CN6C7CCC6CN(c6cc(-c8ccccc8O)nnc6N)C7)C4)C5)CC3)no2)C(C)C)cc1 [Compound 119, (2S,4R)-1-[(2R)-2-{3-[4-({2-[(2R)-2-({3-[3-amino-6-(2-hydroxyphenyl)pyridazin-4-yl]-3,8-diazabicyclo[3.2.1]octan-8-yl}methyl)morpholin-4-yl]-7-azaspiro[3.5]nonan-7-yl}methyl)piperidin-1-yl]-1,2-oxazol-5-yl}-3-methylbutanoyl]-4-hydroxy-N-[(1S)-1-[4-(4-methyl-1,3-thiazol-5-yl)phenyl]ethyl]pyrrolidine-2-carboxamide] | < 2.5 nM | > 75% |
| CC(C)[C@@H](C(=O)N1C[C@H](O)C[C@H]1C(=O)N[C@@H](C)c1ccc(-c2ccnn2C)cc1)c1cc(N2CCC(CN3CCC(O[C@H]4C[C@H](N5CCC(C(C)n6cc(C#Cc7cc(-c8ccccc8O)nnc7N)cn6)CC5)C4)CC3)CC2)no1 (stereo partly drawn) [Compound 42, (2S,4R)-4-hydroxy-N-[(1S)-1-[4-(1-methyl-1H-pyrazol-5-yl)phenyl]ethyl]-1-[(2R)-3-methyl-2-{3-[4-({4-[(1r,3r)-3-{4-[1-(4-{2-[3-amino-6-(2-hydroxyphenyl)pyridazin-4-yl]ethynyl}-1H-pyrazol-1-yl)ethyl]piperidin-1-yl}cyclobutoxy]piperidin-1-yl}methyl)piperidin-1-yl]-1,2-oxazol-5-yl}butanoyl]pyrrolidine-2-carboxamide] | < 2.5 nM | > 75% |
| Cc1ncsc1-c1ccc([C@H](C)NC(=O)[C@@H]2C[C@@H](O)CN2C(=O)[C@H](c2cc(N3CCN(C(=O)N4CCC(O[C@H]5C[C@H](Oc6cc(N7C8CCC7CN(c7cc(-c9ccccc9O)nnc7N)C8)ccn6)C5)CC4)CC3)no2)C(C)C)cc1 [Compound 124, (2S,4R)-4-hydroxy-N-[(1S)-1-[4-(4-methyl-1,3-thiazol-5-yl)phenyl]ethyl]-1-[(2R)-3-methyl-2-[3-(4-{4-[(1r,3r)-3-[(4-{3-[3-amino-6-(2-hydroxyphenyl)pyridazin-4-yl]-3,8-diazabicyclo[3.2.1]octan-8-yl}pyridin-2-yl)oxy]cyclobutoxy]piperidine-1-carbonyl}piperazin-1-yl)-1,2-oxazol-5-yl]butanoyl]pyrrolidine-2-carboxamide] | ≥ 30 nM |  |
| CC(C)[C@@H](C(=O)N1C[C@H](O)C[C@H]1C(=O)N[C@@H](C)c1ccc(C#N)cc1)c1cc(N2CCC(C(=O)N3CCC(O[C@H]4C[C@H](Oc5cc(N6C7CCC6CN(c6cc(-c8ccccc8O)nnc6N)C7)ccn5)C4)CC3)CC2)no1 [Compound 138, (2S,4R)-N-[(1S)-1-(4-cyanophenyl)ethyl]-4-hydroxy-1-[(2R)-3-methyl-2-[3-(4-{4-[(1r,3r)-3-[(4-{3-[3-amino-6-(2-hydroxyphenyl)pyridazin-4-yl]-3,8-diazabicyclo[3.2.1]octan-8-yl}pyridin-2-yl)oxy]cyclobutoxy]piperidine-1-carbonyl}piperidin-1-yl)-1,2-oxazol-5-yl]butanoyl]pyrrolidine-2-carboxamide] | < 2.5 nM | > 75% |
| CC(NC(=O)[C@@H]1C[C@@H](O)CN1C(=O)[C@@H](c1cc(N2CCC(CN3CCC(O[C@H]4C[C@H](Oc5cc(N6C7CCC6CN(c6cc(-c8ccccc8O)nnc6N)C7)ccn5)C4)CC3)CC2)no1)C(C)C)c1ccc(C#N)c(F)c1 (stereo partly drawn) [Compound 4, (2S,4R)-N-[1-(4-cyano-3-fluorophenyl)ethyl]-4-hydroxy-1-[(2R)-3-methyl-2-{3-[4-({4-[(1r,3r)-3-[(4-{3-[3-amino-6-(2-hydroxyphenyl)pyridazin-4-yl]-3,8-diazabicyclo[3.2.1]octan-8-yl}pyridin-2-yl)oxy]cyclobutoxy]piperidin-1-yl}methyl)piperidin-1-yl]-1,2-oxazol-5-yl}butanoyl]pyrrolidine-2-carboxamide] | < 2.5 nM | > 75% |
| Cc1ncsc1-c1ccc([C@H](C)NC(=O)[C@@H]2C[C@@H](O)CN2C(=O)[C@@H](c2cc(N3CCC(O[C@H]4CC[C@@H](Oc5cc(N6C7CCC6CN(c6cc(-c8ccccc8O)nnc6N)C7)ccn5)CC4)CC3)no2)C(C)C)cc1 [Compound 80, (2S,4R)-4-hydroxy-N-[(1S)-1-[4-(4-methyl-1,3-thiazol-5-yl)phenyl]ethyl]-1-[(2R)-3-methyl-2-[3-(4-{[(1s,4s)-4-[(4-{3-[3-amino-6-(2-hydroxyphenyl)pyridazin-4-yl]-3,8-diazabicyclo[3.2.1]octan-8-yl}pyridin-2-yl)oxy]cyclohexyl]oxy}piperidin-1-yl)-1,2-oxazol-5-yl]butanoyl]pyrrolidine-2-carboxamide] | < 2.5 nM | > 75% |
| Cc1ncsc1-c1ccc([C@H](C)NC(=O)[C@@H]2C[C@@H](O)CN2C(=O)[C@@H](c2cc(N3CCC(CN4CCC5(CC4)CC(N4CCC[C@@](O)(CN6C7CCC6CN(c6cc(-c8ccccc8O)nnc6N)C7)C4)C5)CC3)no2)C(C)C)cc1 [Compound 71, (2S,4R)-1-[(2R)-2-{3-[4-({2-[(3S)-3-({3-[3-amino-6-(2-hydroxyphenyl)pyridazin-4-yl]-3,8-diazabicyclo[3.2.1]octan-8-yl}methyl)-3-hydroxypiperidin-1-yl]-7-azaspiro[3.5]nonan-7-yl}methyl)piperidin-1-yl]-1,2-oxazol-5-yl}-3-methylbutanoyl]-4-hydroxy-N-[(1S)-1-[4-(4-methyl-1,3-thiazol-5-yl)phenyl]ethyl]pyrrolidine-2-carboxamide] | < 2.5 nM | > 75% |
| CC(C)[C@@H](C(=O)N1C[C@H](O)C[C@H]1C(=O)N[C@@H](C)c1ccc(-c2ccnn2C)cc1)c1cc(N2CCC(CN3CCC(O[C@H]4C[C@H](Oc5cc(/C=C(\F)c6cc(-c7ccccc7O)nnc6N)ccn5)C4)CC3)CC2)no1 [Compound 51, (2S,4R)-4-hydroxy-N-[(1S)-1-[4-(1-methyl-1H-pyrazol-5-yl)phenyl]ethyl]-1-[(2R)-3-methyl-2-{3-[4-({4-[(1r,3r)-3-[(4-{2-[3-amino-6-(2-hydroxyphenyl)pyridazin-4-yl]-2-fluoroethenyl}pyridin-2-yl)oxy]cyclobutoxy]piperidin-1-yl}methyl)piperidin-1-yl]-1,2-oxazol-5-yl}butanoyl]pyrrolidine-2-carboxamide] | < 2.5 nM | > 75% |
| CC(C)[C@H](C(=O)N1C[C@H](O)C[C@H]1C(=O)N[C@@H](C)c1ccc(-c2ccnn2C)cc1)c1cc(N2CCC(OC3CCN(CC4CC(N5CCC([C@@H](C)n6cc(C#Cc7cc(-c8ccccc8O)nnc7N)cn6)CC5)C4)CC3)CC2)no1 (stereo partly drawn) [Compound 109, (2S,4R)-1-[(2S)-2-{3-[4-({1-[(3-{4-[(1R)-1-(4-{2-[3-amino-6-(2-hydroxyphenyl)pyridazin-4-yl]ethynyl}-1H-pyrazol-1-yl)ethyl]piperidin-1-yl}cyclobutyl)methyl]piperidin-4-yl}oxy)piperidin-1-yl]-1,2-oxazol-5-yl}-3-methylbutanoyl]-4-hydroxy-N-[(1S)-1-[4-(1-methyl-1H-pyrazol-5-yl)phenyl]ethyl]pyrrolidine-2-carboxamide] | ≥ 30 nM |  |
| Cc1ncsc1-c1ccc([C@H](C)NC(=O)[C@@H]2C[C@@H](O)CN2C(=O)[C@H](c2cc(N3CCC(O[C@H]4CC[C@@H](Oc5cc(N6C7CCC6CN(c6cc(-c8ccccc8O)nnc6N)C7)ccn5)CC4)CC3)no2)C(C)C)cc1 [Compound 79, (2S,4R)-4-hydroxy-N-[(1S)-1-[4-(4-methyl-1,3-thiazol-5-yl)phenyl]ethyl]-1-[(2S)-3-methyl-2-[3-(4-{[(1s,4s)-4-[(4-{3-[3-amino-6-(2-hydroxyphenyl)pyridazin-4-yl]-3,8-diazabicyclo[3.2.1]octan-8-yl}pyridin-2-yl)oxy]cyclohexyl]oxy}piperidin-1-yl)-1,2-oxazol-5-yl]butanoyl]pyrrolidine-2-carboxamide] | ≥ 30 nM |  |
| Cc1ncsc1-c1ccc([C@H](C)NC(=O)[C@@H]2C[C@@H](O)CN2C(=O)[C@@H](c2cc(N3CCC(CN4CCC5(CC4)CC(N4CCO[C@H]([C@H](C)n6cc(C#Cc7cc(-c8ccccc8O)nnc7N)cn6)C4)C5)CC3)no2)C(C)C)cc1 [Compound 96, (2S,4R)-1-[(2R)-2-{3-[4-({2-[(2S)-2-[(1S)-1-(4-{2-[3-amino-6-(2-hydroxyphenyl)pyridazin-4-yl]ethynyl}-1H-pyrazol-1-yl)ethyl]morpholin-4-yl]-7-azaspiro[3.5]nonan-7-yl}methyl)piperidin-1-yl]-1,2-oxazol-5-yl}-3-methylbutanoyl]-4-hydroxy-N-[(1S)-1-[4-(4-methyl-1,3-thiazol-5-yl)phenyl]ethyl]pyrrolidine-2-carboxamide] | < 2.5 nM | > 75% |

— patent publication US20250059198A1, “BRM DEGRADING COMPOUNDS AND ASSOCIATED METHODS OF USE” (Arvinas Operations, Inc., priority 2021, published 2025)
